Measured values reported in US11173165B2, “Optimizing mifepristone levels for Cushing's patients” (Corcept Therapeutics, Inc., priority 2015, dated 2021).

Legend:
[1] = cited from earlier work
[2] = test system: patients with a diagnosis of Cushing's syndrome; assay: Optimal response to mifepristone in Phase III open label study of Cushing's syndrome; format: in vivo, human; conditions: responders who completed the study
Experimental: This example provides an open label study of the safety and efficacy in the treatment of Cushing's syndrome. The study was a Phase III trial performed using several investigators at several different sites. […] The number of patients was 50. Patients eligible for randomization were male or nonpregnant female outpatients, and inpatients, if clinically required, with a diagnosis of Cushing's syndrome. Mifepristone was used as the test drug at 300 (1×300 mg tablet), 600 (2×300 mg tablet), 900 (3×300 mg tablet) and 1200 mg (4×300 mg tablet) once a day by mouth. Safety visits occurred at Days 21 and 35. If clinically necessary, a patient was treated as an inpatient. If early termination occurred prior to day 35, the patient returned for a safety follow up visit at day 35. The primary efficacy endpoint was the proportion of patients with at least a 25% reduction from baseline on a standard two hour oral glucose tolerance test or a […] in their diastolic blood pressure at study end (6 months). The secondary endpoints were: (1) the patient's global impression; and (2) reduction in previously used antihypertensive medication. The criteria for assessing study efficacy objective was the proportion of patients with at least a 25% reduction from baseline on a standard two hour oral glucose tolerance test or a […] in their diastolic blood pressure at study end (6 months).

[3] = Mifepristone trough plasma level (MIFE-Ctrough) in Phase III open label study of Cushing's syndrome; format: in vivo, human; conditions: for MIFE-Ctrough, Mean / MIFE-Ctrough, Max / MIFE-Ctrough, Median / MIFE-Ctrough, Min: responders who completed the study
Experimental: Three (3) mL of blood was collected from a patient in a vacutainer containing sodium heparin. The blood was centrifuged and the resulting plasma frozen at −70 to −80° C. until assay. For analysis, the plasma samples were warmed and prepared as follows: • 1. Using a pipette, 50.0 μL of the sample was aliquoted into a 16×100-mm glass test tube. When a partial volume aliquot was needed, the aliquot was added to the tube and diluted to full volume with blank human plasma. • 2. 20.0 μL of the internal standard, mifepristone-d4 (5.00 μg/mL in acetonitrile), was added to the tube, resulting in 2000.0 ng/mL mifepristone-d4 in plasma. • 3. The tube was vortexed for approximately 1 minute. • 4. 50.0 μL of 6% ammonium hydroxide was added to the tube. • 5. The tube was vortexed for approximately 1 minute. • 6. 2.00 mL of MTBE was added to the tube. • 7. 2.00 mL of hexane was added to the tube. • 8. The tube was vortexed for at least 15 minutes. • 9. The tube was centrifuged for at least 10 minutes at 2500 RPM (575×g). • 10. The aqueous layer was frozen in a freezer set to maintain −70° C. • 11. […] The tube was vortexed for approximately 1 minute. • 15. The tube was sonicated for approximately 1 minute. • 16. The tube was vortexed for approximately 1 minute. • 17. The sample was transferred to a labeled injection vial or well plate. • 18. The vial or plate was capped and checked for air bubbles. The sample was then analyzed by reverse-phase high pressure liquid chromatography using a water:acetonitrile:formic acid (60:40:0.1) mobile phase (isocratic) at a flow rate of 0.3 mL/min. The column was a phenyl column maintained at 50° C. Mifepristone elutes at 4.2 minutes. Following elution, the mobile phase was nebulized using heated nitrogen in a Z-spray source/interface and the ionized compounds detected using a tandem quadrupole mass spectrometer. Mifepristone (molecular weight of 430 g/mol) was detected at m/z 372.30. The internal standard mifepristone-d4 was detected at m/z 376.30. The ratio of the mifepristone peak height to the mifepristone-d4 peak height was calculated. The plasma concentration of mifepristone was then calculated by comparing the experimental ratio to a standard curve of mifepristone:mifepristone-d4 peak height ratio v. mifepristone concentration. The standard curve was generated by first measuring the mifepristone:mifepristone-d4 peak height ratios for mifepristone samples at 10, 20, 50, 100, 200, 500, 1000 and 2000 ng/mL where the mifepristone-d4 internal standard has a concentration of 2000 ng/mL. The mifepristone:mifepristone-d4 peak height ratios of these known solutions were then fit to a power equation (Mass Lynx by Micromass, Beverly, Mass.), and the sample with unknown concentrations of mifepristone was compared. […]

[4] = biological target: glucocorticoid receptor (GR) (Homo sapiens, UniProt P04150); conditions: cited from earlier work
[5] = in vivo; cited from earlier work
[6] = at first response, including early terminators

Chain of glucocorticoid receptor (GR) (P04150 whole entry): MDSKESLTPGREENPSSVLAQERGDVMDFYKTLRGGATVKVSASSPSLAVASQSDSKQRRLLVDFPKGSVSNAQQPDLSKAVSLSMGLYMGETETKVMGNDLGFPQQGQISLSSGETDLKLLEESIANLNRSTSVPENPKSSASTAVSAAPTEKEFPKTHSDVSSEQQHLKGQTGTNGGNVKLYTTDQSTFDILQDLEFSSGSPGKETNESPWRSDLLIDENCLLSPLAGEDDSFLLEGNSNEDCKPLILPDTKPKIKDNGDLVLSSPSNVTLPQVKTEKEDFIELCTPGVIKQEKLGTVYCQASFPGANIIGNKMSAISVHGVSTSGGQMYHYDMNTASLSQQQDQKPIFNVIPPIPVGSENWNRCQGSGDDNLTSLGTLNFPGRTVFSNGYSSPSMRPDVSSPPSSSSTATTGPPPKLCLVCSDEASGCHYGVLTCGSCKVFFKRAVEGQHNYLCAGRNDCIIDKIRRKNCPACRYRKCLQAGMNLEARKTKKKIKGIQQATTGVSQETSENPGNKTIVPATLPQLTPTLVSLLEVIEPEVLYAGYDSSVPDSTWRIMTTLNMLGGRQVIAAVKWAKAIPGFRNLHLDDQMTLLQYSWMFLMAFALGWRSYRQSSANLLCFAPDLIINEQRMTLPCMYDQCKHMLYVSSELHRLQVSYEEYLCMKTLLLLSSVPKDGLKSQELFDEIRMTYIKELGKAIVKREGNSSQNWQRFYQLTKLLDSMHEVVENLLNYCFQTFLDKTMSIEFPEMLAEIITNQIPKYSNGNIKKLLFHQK

## CC#C[C@]1(O)CC[C@H]2[C@@H]3CCC4=CC(=O)CCC4=C3[C@@H](c3ccc(N(C)C)cc3)C[C@@]21C [mifepristone, 17-beta-hydroxy-11-beta-(4-dimethyl-aminophenyl)-17-alpha-(1-propynyl)-estra-4,9-dien-3-one]
[1]; patients suffering from a mental disorder
  blood serum level to be maintained: about 1300 ng/mL
[1]; same dose, different patients
  difference in blood serum levels from one patient to another: ≤ 800%
[2]; dose 300
  Cumulative Optimal Response (%): 20%
  Optimal Response (%): 20%
[2]; dose 600
  Cumulative Optimal Response (%): 40%
  Optimal Response (%): 20%
[2]; dose 900
  Cumulative Optimal Response (%): 60%
  Optimal Response (%): 20%
[2]; dose 1200
  Cumulative Optimal Response (%): 100%
  Optimal Response (%): 40%
[3]; [6]
  MIFE-Ctrough at Response, Max: 4210.00 ng/mL
  MIFE-Ctrough at Response, Mean: 1968.68 ng/mL
  MIFE-Ctrough at Response, Median: 1770.00 ng/mL
  MIFE-Ctrough at Response, Min: 448.00 ng/mL
  MIFE-ΔCtrough from Prior Dose, Max: 2017.00 ng/mL
  MIFE-ΔCtrough from Prior Dose, Mean: 221.50 ng/mL
  MIFE-ΔCtrough from Prior Dose, Median: 250.00 ng/mL
  MIFE-ΔCtrough from Prior Dose, Min: -860.00 ng/mL
[3]; dose 300 (mg once a day by mouth)
  MIFE-Ctrough, Mean: 1774.28 ng/mL
[3]; dose 300
  MIFE-Ctrough, Max: 4130.00 ng/mL
  MIFE-Ctrough, Median: 1455.00 ng/mL
  MIFE-Ctrough, Min: 820.00 ng/mL
[3]; dose 600 (mg once a day by mouth)
  MIFE-Ctrough, Mean: 1951.66 ng/mL
[3]; dose 600
  MIFE-Ctrough, Max: 3850.00 ng/mL
  MIFE-Ctrough, Median: 1630.00 ng/mL
  MIFE-Ctrough, Min: 890.00 ng/mL
[3]; dose 900 (mg once a day by mouth)
  MIFE-Ctrough, Mean: 2107.70 ng/mL
[3]; dose 900
  MIFE-Ctrough, Max: 4230.00 ng/mL
  MIFE-Ctrough, Median: 1820.00 ng/mL
  MIFE-Ctrough, Min: 992.00 ng/mL
[3]; dose 1200 (mg once a day by mouth)
  MIFE-Ctrough, Mean: 2292.86 ng/mL
[3]; dose 1200
  MIFE-Ctrough, Max: 5440.00 ng/mL
  MIFE-Ctrough, Median: 2022.50 ng/mL
  MIFE-Ctrough, Min: 1060.00 ng/mL
[3]; patients suffering from Cushing's syndrome
  blood serum level to be maintained for a therapeutic response: at least 1631 ng/mL
[4]
  binding to the glucocorticoid receptor (GR): high affinity
[5]
  LD50 dose: about 1000 mg/kg
